The source made the active and inactive calls.
How the values were obtained:
[1] = target: Luciferin 4-monooxygenase (Photinus pyralis, UniProt P08659); test: inhibition of purified Photinus pyralis luciferase – biochemical, luminescence, dose response (AID 1891)
[2] = Luminescence Cell-Based Dose Confirmation HTS to Identify Inhibitors of Platelet Dense Granule Release. [Related pubchem assays: 1663 (Primary HTS), 1678 (Summary of Project)]; assay type: functional
[3] = target: T1, High affinity choline transporter 1 (Homo sapiens, UniProt Q9GZV3); test: human choline transporter blockers, potency – cell-based, 5-point CRC, membrane potential dye, dose response (AID 504840); assay type: functional
T1 sequence (Q9GZV3 whole entry): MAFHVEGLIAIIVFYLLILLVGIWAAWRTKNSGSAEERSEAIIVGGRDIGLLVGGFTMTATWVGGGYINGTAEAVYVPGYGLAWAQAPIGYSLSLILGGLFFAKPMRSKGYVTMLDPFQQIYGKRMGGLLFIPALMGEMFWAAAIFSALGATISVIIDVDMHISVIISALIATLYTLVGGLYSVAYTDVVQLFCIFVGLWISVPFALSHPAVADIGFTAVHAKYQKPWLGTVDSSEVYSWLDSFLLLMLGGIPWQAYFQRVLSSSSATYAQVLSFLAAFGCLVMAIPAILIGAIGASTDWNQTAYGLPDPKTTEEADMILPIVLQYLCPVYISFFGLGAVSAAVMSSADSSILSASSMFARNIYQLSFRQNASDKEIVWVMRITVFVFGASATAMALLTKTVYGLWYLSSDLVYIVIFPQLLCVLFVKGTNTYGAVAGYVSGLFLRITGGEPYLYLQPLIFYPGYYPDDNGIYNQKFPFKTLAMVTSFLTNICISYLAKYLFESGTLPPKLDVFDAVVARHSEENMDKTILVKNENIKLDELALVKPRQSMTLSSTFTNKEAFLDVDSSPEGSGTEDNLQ

[4] = target: T2, Replicative DNA helicase DnaB (Mycobacterium tuberculosis, UniProt P9WMR3); test: DnaB intein splicing inhibitors, dose response, biochemical, cell-free fluorescence (AID 449749); assay type: functional
T2 sequence (P9WMR3 whole entry): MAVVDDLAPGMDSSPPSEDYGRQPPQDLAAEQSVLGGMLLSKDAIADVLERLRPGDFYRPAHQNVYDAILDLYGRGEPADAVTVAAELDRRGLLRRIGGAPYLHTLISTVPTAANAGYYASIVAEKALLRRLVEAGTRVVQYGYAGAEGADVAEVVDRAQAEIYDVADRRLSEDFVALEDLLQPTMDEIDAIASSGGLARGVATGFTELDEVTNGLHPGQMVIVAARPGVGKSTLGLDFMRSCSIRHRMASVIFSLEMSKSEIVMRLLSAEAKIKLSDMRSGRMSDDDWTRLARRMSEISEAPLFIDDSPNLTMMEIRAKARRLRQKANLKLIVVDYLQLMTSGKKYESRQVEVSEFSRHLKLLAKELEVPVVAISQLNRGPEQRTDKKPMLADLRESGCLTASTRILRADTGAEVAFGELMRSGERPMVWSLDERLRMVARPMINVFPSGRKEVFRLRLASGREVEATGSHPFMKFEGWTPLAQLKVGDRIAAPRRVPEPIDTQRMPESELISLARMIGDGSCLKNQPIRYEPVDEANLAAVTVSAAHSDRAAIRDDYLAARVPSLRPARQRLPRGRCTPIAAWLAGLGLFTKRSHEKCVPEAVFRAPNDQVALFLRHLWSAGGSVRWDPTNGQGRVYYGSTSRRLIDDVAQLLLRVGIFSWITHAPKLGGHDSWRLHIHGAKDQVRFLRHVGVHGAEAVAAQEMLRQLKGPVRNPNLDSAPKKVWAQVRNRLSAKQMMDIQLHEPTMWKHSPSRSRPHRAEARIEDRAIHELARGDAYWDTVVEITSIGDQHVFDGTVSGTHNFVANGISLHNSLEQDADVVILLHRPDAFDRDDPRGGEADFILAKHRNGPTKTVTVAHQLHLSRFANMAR

Protein RecA = target: T3, Protein RecA (Mycobacterium tuberculosis, UniProt P9WHJ3); test: Fluorescence Cell-Free Homogeneous Dose Retest to Identify Inhibitors of RecA-Intein Splicing Activity. [Related pubchem assays (depositor defined):AID2097, AID2223, AID489010, AID492950]; assay type: functional
T3 sequence (P9WHJ3 whole entry): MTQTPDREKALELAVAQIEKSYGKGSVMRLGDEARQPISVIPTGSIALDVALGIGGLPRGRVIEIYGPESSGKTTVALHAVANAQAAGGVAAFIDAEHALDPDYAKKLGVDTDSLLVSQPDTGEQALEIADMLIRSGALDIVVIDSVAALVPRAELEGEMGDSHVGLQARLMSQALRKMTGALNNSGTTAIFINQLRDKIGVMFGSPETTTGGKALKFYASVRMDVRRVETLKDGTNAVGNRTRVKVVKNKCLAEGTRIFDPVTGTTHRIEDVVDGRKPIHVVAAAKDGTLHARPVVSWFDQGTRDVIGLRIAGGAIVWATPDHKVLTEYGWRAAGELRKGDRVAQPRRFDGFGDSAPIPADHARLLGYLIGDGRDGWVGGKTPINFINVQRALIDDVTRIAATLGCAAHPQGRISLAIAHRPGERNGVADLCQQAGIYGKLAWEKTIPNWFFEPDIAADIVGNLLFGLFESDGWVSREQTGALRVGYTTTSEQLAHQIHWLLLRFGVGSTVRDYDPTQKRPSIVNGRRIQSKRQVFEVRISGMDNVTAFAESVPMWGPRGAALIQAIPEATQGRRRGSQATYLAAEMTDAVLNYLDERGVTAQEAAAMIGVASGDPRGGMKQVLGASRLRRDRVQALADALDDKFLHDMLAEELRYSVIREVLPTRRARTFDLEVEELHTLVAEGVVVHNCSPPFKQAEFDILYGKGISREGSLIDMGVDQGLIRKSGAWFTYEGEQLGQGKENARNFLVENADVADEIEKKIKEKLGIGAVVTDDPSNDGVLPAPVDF

Cytochrome P450 2C19 = Cytochrome P450 2C19 (Homo sapiens, UniProt P33261); test: Cytochrome panel assay with activity outcomes. Panel member name: p450-cyp2c19 Compounds with AC50 equal or less than 10 uM are considered active; assay type: functional; conditions: read-out: AC50
Cytochrome P450 3A4 = Cytochrome P450 3A4 (Homo sapiens, UniProt P08684);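 further: CYP3A4 tested as one member of a cytochrome P450 panel screen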
[5] = target: T4, Heat shock factor protein 1 (Mus musculus, UniProt P38532); test: enhancement of HSF1-driven luciferase signal – cell-based, NIH3T3, luminescence, dose retest, confirmation (AID 435004); assay type: functional;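 further: stress induced by proteasome inhibitor MG132 added 30 min after compound; luciferase reporter driven by HSF1 response element in NIH3T3 cells; actives raise luminescence as potentiators of the MG132 stress response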
T4 sequence (P38532 whole entry): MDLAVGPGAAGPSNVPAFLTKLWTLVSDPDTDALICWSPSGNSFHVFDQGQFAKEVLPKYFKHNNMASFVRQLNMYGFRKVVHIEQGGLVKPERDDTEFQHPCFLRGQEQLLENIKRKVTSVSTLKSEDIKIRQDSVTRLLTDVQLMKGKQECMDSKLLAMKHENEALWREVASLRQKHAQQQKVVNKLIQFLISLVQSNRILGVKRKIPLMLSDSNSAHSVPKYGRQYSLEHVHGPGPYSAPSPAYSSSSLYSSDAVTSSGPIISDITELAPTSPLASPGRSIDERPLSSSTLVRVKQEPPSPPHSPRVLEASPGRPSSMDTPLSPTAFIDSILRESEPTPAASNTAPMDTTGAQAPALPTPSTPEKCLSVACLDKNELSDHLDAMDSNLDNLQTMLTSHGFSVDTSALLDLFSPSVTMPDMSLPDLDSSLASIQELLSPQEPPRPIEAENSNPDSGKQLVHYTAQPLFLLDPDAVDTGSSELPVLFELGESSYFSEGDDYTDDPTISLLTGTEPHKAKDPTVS

[6] = tested on: Streptococcus sp. 'group A'; test: Streptococcus pyogenes SK(-)GAS viability under kanamycin – luminescence, BacTiterGlo, confirmation, counter-screen for streptokinase expression inhibitor project, dose response (AID 1900); assay type: functional, organism-based
Streptokinase A = target: T5, Streptokinase A (Streptococcus pyogenes serotype M1, UniProt P10520); test: viability-normalized secreted streptokinase activity reduction – plasminogen activation absorbance, OD405, dose response (AID 1914); assay type: functional, Streptococcus pyogenes M1 GAS;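 further: secreted streptokinase activity via plasminogen activation per viability signal from cell pellet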
T5 sequence (P10520 whole entry): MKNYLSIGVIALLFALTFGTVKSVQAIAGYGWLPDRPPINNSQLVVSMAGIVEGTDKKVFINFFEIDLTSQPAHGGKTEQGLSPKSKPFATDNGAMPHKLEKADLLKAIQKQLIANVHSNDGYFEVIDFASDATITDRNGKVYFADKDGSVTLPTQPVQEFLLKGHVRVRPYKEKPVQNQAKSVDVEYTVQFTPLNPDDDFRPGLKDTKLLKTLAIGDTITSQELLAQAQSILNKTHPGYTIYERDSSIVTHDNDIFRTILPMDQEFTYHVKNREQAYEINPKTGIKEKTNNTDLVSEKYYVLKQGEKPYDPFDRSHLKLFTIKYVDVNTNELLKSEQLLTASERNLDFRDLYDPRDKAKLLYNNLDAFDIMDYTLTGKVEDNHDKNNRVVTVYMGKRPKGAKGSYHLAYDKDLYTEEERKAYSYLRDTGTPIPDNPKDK

[7] = viability of PTEN-deleted HCT116 cells – cell-based, HCT116 PTEN knockout, dose response (AID 1047); assay type: functional;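 further: HCT116 colon tumor cells with PTEN knocked out; cells exposed to compound for 60 hours before readout; potency for loss of cell viability measured by luminescence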
[8] = viability of HCT116 lacking mutant beta-catenin – cell-based, human colon tumor, dose response (AID 1045); assay type: functional;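 further: HCT116 colon tumor cells with beta catenin knocked out; cells exposed to compound for 60 hours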
Streptococcus = test: GAS UMAA2166 growth inhibition – luminescence, BacTiterGlo, counter-screen for streptokinase expression inhibitor project, dose response (AID 1915); assay type: functional, organism-based;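 further: potency for reduction of bacterial viability or growth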

Sequence of Luciferin 4-monooxygenase (P08659 whole entry): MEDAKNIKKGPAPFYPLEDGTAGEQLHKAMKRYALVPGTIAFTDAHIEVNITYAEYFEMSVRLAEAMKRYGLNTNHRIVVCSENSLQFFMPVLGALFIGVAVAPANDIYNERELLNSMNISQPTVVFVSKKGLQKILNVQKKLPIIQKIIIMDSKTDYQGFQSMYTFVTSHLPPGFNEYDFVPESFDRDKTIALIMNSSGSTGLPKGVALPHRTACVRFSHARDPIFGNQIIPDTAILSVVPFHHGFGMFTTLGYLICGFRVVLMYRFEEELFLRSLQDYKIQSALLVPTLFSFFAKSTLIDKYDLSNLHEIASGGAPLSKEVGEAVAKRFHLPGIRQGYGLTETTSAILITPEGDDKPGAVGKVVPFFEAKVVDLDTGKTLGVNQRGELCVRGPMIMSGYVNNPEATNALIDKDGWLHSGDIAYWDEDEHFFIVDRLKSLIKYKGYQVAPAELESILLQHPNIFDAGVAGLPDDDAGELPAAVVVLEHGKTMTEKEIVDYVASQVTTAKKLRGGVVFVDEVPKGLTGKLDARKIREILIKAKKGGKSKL
Sequence of Cytochrome P450 3A4 (P08684 whole entry): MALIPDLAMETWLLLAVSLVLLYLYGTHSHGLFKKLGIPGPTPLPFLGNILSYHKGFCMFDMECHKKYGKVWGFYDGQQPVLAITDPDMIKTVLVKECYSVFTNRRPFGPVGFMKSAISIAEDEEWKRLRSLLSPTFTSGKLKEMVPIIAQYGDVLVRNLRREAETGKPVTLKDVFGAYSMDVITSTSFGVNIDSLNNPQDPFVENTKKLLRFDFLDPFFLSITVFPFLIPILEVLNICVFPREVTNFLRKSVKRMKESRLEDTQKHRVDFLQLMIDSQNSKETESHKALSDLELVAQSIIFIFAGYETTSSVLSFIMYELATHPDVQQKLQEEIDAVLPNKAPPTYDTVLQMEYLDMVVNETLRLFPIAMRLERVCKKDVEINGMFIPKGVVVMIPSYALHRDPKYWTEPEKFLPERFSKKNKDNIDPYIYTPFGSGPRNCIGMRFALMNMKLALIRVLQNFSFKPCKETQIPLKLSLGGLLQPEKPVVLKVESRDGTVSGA
Sequence of Cytochrome P450 2C19 (P33261 whole entry): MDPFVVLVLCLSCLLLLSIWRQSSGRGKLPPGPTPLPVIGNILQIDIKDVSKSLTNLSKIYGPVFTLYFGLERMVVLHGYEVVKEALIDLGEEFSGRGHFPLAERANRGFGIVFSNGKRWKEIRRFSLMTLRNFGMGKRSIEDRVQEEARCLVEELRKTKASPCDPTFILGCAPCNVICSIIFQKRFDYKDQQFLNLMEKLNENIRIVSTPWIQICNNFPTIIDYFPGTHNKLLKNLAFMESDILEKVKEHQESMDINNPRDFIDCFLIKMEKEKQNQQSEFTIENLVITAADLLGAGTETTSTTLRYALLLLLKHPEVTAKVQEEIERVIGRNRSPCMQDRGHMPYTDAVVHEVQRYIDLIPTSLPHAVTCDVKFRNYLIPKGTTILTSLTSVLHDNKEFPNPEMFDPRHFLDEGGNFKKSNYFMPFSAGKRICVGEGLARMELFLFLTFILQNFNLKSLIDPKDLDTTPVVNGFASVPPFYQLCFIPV

SMILES | EC50 [1] | EC50 [2] | IC50 [3] | other results
CC(Oc1cccc(Cl)c1)C(=O)Nc1ccccc1N1CCCC1 (stereo unspecified) | > 112 µM (not active) | > 112 µM (not active) | – | –
CNc1oc(Cc2cccc3ccccc23)nc1C#N | – | – | 12.6 µM (active) | –
COc1ccc(N2C(=O)/C(=C\c3ccco3)N=C2SCC(=O)NC(C)(C)C)cc1Cl | – | – | – | AC50 [4]: > 380 µM (inactive); EC50 (Protein RecA): 20.7 µM (inconclusive)
Cc1cc(C(=O)CSc2n[nH]c(N)n2)c(C)n1-c1cc(F)ccc1F | – | – | 11.2 µM (active) | –
COc1ccc(NC(=O)c2cccc(OC(F)F)c2)cc1Cl | 17.3 µM (active) | 18.2 µM (active) | – | –
CCCCCn1c(CN2CCCCC2C)nc2c1c(=O)n(C)c(=O)n2C (stereo unspecified) | – | – | 13.2 µM (active) | AC50 (Cytochrome P450 2C19): 20 µM (inconclusive); AC50 (Cytochrome P450 3A4): 5.01 µM (inconclusive)
CC(C)OCCCN1CN(S(=O)(=O)c2cccs2)c2nc3ccccc3nc21 | > 112 µM (not active) | > 112 µM (not active) | – | –
CCCNc1nc2c(c(=O)n(C)c(=O)n2C)n1CCC(C)C | – | – | 6.03 µM (active) | –
CN(C)c1nc(OCCNC(=O)Nc2ccc(Cl)cc2)nc(N(C)C)n1 | 21.3 µM (active) | > 112 µM (not active) | – | –
Cc1nnc(SCC(=O)Nc2ccc(Br)cn2)nc1O | > 112 µM (not active) | > 112 µM (not active) | – | –
CC(Oc1ccccc1Cl)C(=O)Nc1ccc(S(=O)(=O)Nc2nccs2)cc1 (stereo unspecified) | – | – | 5.01 µM (active) | –
Cc1ccccc1SCC(=O)OCC(=O)N(C)c1c(N)n(Cc2ccccc2)c(=O)[nH]c1=O | > 112 µM (not active) | > 112 µM (not active) | – | –
COCc1n[nH]c2c1C(c1ccc(OC)cc1)C(C#N)=C(N)O2 (stereo unspecified) | – | – | – | AC50 [4]: 25.8 µM (active); EC50 (Protein RecA): 6.79 µM (active)
Cc1ccc(-c2[nH]c3ccccc3c2C(C[N+](=O)[O-])c2ccco2)cc1 (stereo unspecified) | > 112 µM (not active) | > 112 µM (not active) | – | EC50 [5]: > 260 µM (inactive)
CC1CCN(CCNC(=O)C2CCCN(c3ncnc4c3nc3n4CCCCC3)C2)CC1 (stereo unspecified) | – | – | 13.2 µM (active) | –
O=c1c2sc3nc(N4CCOCC4)c4c(c3c2ncn1-c1ccccc1)CCCC4 | > 112 µM (not active) | > 112 µM (not active) | – | –
CCOc1ccccc1/C=C/C(=O)NCC(=O)N1CCC(N(C)C2CCCCC2C)CC1 (stereo unspecified) | – | – | 14.8 µM (active) | –
Cc1nc2sccn2c(=O)c1S(=O)(=O)NCC(C)c1ccccc1 (stereo unspecified) | > 112 µM (not active) | > 112 µM (not active) | – | –
Cc1c(Cl)cccc1N=C([S-])/C(=C(\O)c1ccc(Cl)s1)[n+]1ccccc1 | – | – | – | AC50 [4]: 19.8 µM (active); EC50 (Protein RecA): 12.9 µM (active)
O=C(CSc1ccccc1)Nc1nc2ccccc2[nH]1 | > 112 µM (not active) | > 112 µM (not active) | – | –
CCN(CC(=O)NC1CCS(=O)(=O)C1)S(=O)(=O)c1ccccc1 (stereo unspecified) | > 112 µM (not active) | > 112 µM (not active) | – | –
Cn1c2ccccc2c(=O)c2c(=O)n(C3CCCCC3)c(-c3cccs3)nc21 | – | – | – | EC50 [6]: 10.6 µM (active); EC50 (Streptokinase A): > 150 µM (not active); EC50 [7]: 7.92 µM (active); EC50 [8]: 8.9 µM (active); EC50 (Streptococcus): 39.2 µM (active)
COc1ccc(NC(=S)N2CCc3ccccc32)cc1OC | > 112 µM (not active) | > 112 µM (not active) | – | –
O=C(NCCCn1ccnc1)/C(=C\c1ccc(Br)cc1)NC(=O)c1ccccc1 | – | – | 15.1 µM (active) | –
CC(CCn1cccn1)NC(=O)CCc1nnc(CCc2ccccc2)o1 (stereo unspecified) | – | – | – | AC50 [4]: > 380 µM (inactive); EC50 (Protein RecA): > 380 µM (inactive)
COCCCNC(=O)c1ccc(OC)c(OC2CCN(C(C)C)CC2)c1 | – | – | 2.51 µM (active) | –
COc1ccc(C(CNC(=O)c2cc(S(=O)(=O)NCc3ccccc3)ccc2C)N2CCOCC2)cc1 (stereo unspecified) | – | – | 11 µM (active) | –
C[N+](C)(C)CC=O [BETAINE ALDEHYDE CHLORIDE] | – | – | 15.1 µM (active) | –

— ChEMBL document CHEMBL1201862, “PubChem BioAssay data set” (2004)
